# Experimental data published in article PMC5056344, “Highly Efficient and Stable Novel NanoBiohybrid Catalyst to Avert 3,4-Dihydroxybenzoic Acid Pollutant in Water” (Scientific Reports, 2016).
# Test system: T1, protocatechuate 3,4-dioxygenase (3,4-POD)
# T1 construct: gene pcaG; 700 kDa; (alpha-beta)n, n = 2-12, non-heme Fe(III); free enzyme
# Assay: disappearance of […],4-DHBA at […] nm; non-linear Michaelis-Menten fit
# Format: biochemical, Pseudomonas sp.
# Conditions: free enzyme; 50 mM CHES, pH 9.0, 55 °C; 3,4-DHBA 1–200 μM
smiles,measurement,value
"O=C(O)c1ccc(O)c(O)c1 [3,4-dihydroxybenzoic acid]",Km,37 ± 15 µM
